Converted amounts (≈) assume the structure as drawn. Where two headings read alike, the source gives them in different places.
Tests used:
TRPV1 receptor = TRPV1 receptor (Homo sapiens, UniProt Q8NER1); assay: TRPV1 receptor activity; assay type: cell-based
Experimental: “TRPV1 receptor” refers to the Transient Receptor Potential Vanilloid 1 that has been characterized through molecular cloning and pharmacology. See e.g., Caterina M J, et al., Nature 1997; 389:816-824. TRPV1 receptor activity is measured as described in WO2005/120510, hereby incorporated by reference in its entirety.

[1] = system: postoperative ocular pain in patients undergoing photorefractive keratectomy (PRK) surgery; assay: PRK clinical study, VAS pain severity; assay type: in vivo, human
Experimental: The study was a proof of concept, double-masked, randomized, vehicle-controlled study of compound I administered as eye drops in addition to standard of care treatment in patients after PRK surgery. PRK surgery was performed as an outpatient procedure under topical anesthesia with removal of the corneal epithelium to expose the stroma for the laser ablation. Compound I dosing was as single eye drop of 2.5% (0.925 mg/drop), administered four times daily (every six hours) in one eye from immediate post-op (time 0) to last dose at 72 hours.
The study consisted of 2 treatment periods using a crossover design. Patients underwent PRK surgery on 2 separate occasions (periods), one eye at a time. Patients were randomized to receive either compound 1 or vehicle following procedure 1 and the alternate following procedure 2.
Patient subjective experience of pain was recorded using VAS, a numeric assessment of pain between 0 and 100, with 0 representing no pain, and 100 representing worst imaginable pain. […] Since it was important clinically to both decrease the maximum pain as well as the overall pain that the patient experiences during the immediate postoperative period, the two periods of 6 hours and up to 12 hours postoperatively, were evaluated as primary endpoints. All evaluable VAS data was collected using an ePRO, which was an electronic device (cell phone with software application), on which patients marked their pain levels at the appropriate time points.
Rescue oral analgesics: It is not ethical to refuse pain control medication to patients postoperatively as part of a clinical trial. […] Because the use of oral rescue medication may be a potential confounder of the pain VAS evaluation, three approaches were used when analyzing pain VAS scores to account for the influence of pain meds (assuming 4 hours of rescue medication effect): (1) any recorded VAS score within 4 hours after use of rescue medication was considered missing; (2) all the recorded VAS scores was used; and (3) any recorded VAS scores within 4 hours after rescue medication use was imputed by the record taken prior to the rescue medication.
The mean VAS pain severity scores at 6 hours and 0-12 hours post-operatively are presented in Table 22 and Table 23, respectively, and shown in FIG. 3. The primary analysis was performed using the Primary PD analysis set.

[2] = PRK clinical study, plasma pharmacokinetics of compound I (LC-MS/MS); assay type: in vivo, human
Experimental: Pharmacokinetic (PK) samples were collected at the time points defined in the visit schedule supra, with PK blood collection windows shown in Table 27.
All blood samples (3 mL) were taken from the arm by either direct venipuncture or an indwelling catheter inserted in a forearm vein. After each tube of blood was drawn, it was immediately inverted gently 8-10 times to ensure the mixing of tube contents with anticoagulant (3 mL K2 EDTA). Prolonged sample contact with the rubber stopper was avoided and the tubes were placed upright in a test tube rack surrounded by wet ice until centrifugation.
Within 30 minutes, the sample was centrifuged at about 5° C. for 10 minutes at approximately 2000 G (or the sample was placed on ice and centrifuged at room temperature). Immediately after centrifugation, the whole supernatant (approx. 1.5 mL) was transferred in the first 1.8 mL NUNC 2D barcoded cryovial. After mixing the plasma thoroughly, half of the plasma was transferred from the first cryovial to the second cryovial and the caps were secured. Appropriate PK cryolabels were attached to each cryovial and the labels were secured with clear tape. The cryovials were frozen immediately over dry ice then, kept frozen at ≤−20° C. until shipment to the central lab. The vials were shipped in biweekly batches.
Compound I was quantified in plasma using a validated LC-MS/MS method; the lower limit of quantification (LLOQ) was 0.05 ng/mL. Concentrations were expressed in ng per mL units. When feasible, bandage contact lenses (BCL) exposed to study drug were collected and analyzed for residual drug exposure after treatment (LLOQ: 5.00 ng/mL in 0.55 mL of extraction fluid, or 2.75 ng/BCL). Concentrations below the LLOQ were reported as “zero” and missing data were labeled as such.
The following PK parameters were determined as relevant using the actual recorded sampling times and non-compartmental method with Phoenix™ WinNonlin® (Version 6.4): Cmax, Tmax, AUClast (calculated), Clast and Tlast from the plasma concentration-time data. Pre-dose concentrations were determined by inspection at nominal 0, 24 and 72 hours. The linear trapezoidal rule was used for AUClast calculation. No PK parameters were calculated from the bandage contact lenses compound I concentration data.

[3] = Solubility of compound I in solvents; assay type: physicochemical
Text: As noted above, compound I is sparingly soluble in various media.

[4] = Day 1, plasma, topical ocular 2.5% compound I
[5] = Day 4, plasma, topical ocular 2.5% compound I
[6] = human, plasma, topical, 2.5 %, 4 days

TRPV1 receptor, sequence (Q8NER1 whole entry): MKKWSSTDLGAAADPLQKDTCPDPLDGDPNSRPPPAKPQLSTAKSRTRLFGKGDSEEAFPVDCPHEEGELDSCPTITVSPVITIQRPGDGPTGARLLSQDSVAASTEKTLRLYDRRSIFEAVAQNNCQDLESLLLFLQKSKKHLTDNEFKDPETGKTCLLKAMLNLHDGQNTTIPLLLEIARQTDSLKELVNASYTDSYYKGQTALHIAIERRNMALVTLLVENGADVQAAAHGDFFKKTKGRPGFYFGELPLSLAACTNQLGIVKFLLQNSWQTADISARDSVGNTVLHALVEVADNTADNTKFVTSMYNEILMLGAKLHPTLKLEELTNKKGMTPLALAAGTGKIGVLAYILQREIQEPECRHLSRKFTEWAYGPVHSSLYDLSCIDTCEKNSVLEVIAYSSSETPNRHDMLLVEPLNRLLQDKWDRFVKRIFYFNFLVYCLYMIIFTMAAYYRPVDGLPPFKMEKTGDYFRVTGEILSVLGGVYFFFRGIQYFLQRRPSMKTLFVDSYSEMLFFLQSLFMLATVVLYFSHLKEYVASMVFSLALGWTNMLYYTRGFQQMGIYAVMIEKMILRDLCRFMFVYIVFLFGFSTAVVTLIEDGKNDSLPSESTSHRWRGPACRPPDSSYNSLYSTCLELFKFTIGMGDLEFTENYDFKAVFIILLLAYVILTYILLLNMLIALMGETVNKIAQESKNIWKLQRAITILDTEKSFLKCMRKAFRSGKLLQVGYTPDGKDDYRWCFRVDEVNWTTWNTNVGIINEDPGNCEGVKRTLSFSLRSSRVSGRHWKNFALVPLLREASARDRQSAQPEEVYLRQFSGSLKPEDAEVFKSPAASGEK

CC(C)c1nc2cc(O)ccc2c(=O)n1-c1ccc(C#N)cc1 [Compound I, 4-(7-hydroxy-2-isopropyl-4-oxo-4H-quinazolin-3-yl)-benzonitrile]
IC50 (TRPV1 receptor): 30 nM
VAS pain severity score, % Diff ([1]; 0-12 hours post-operatively): −22%
VAS pain severity score, Diff (compound I-Vehicle) ([1]; 0-12 hours post-operatively): −8.56
VAS pain severity score, model estimated mean ([1]; 0-12 hours post-operatively, 2.5% four times daily, Primary PD analysis set): 30.90
VAS pain severity versus Vehicle during the first 18 hours after surgery ([1]; 6 out of the 7 time points, p-value threshold 0.10): statistically significantly lower VAS pain severity scores
VAS pain severity score, % Diff ([1]; 6 hours post-operatively): −25%
VAS pain severity score, Diff (compound I-Vehicle) ([1]; 6 hours post-operatively): −11.1
VAS pain severity score, model estimated mean (SE) ([1]; 6 hours post-operatively, 2.5% four times daily, Primary PD analysis set): 34.63 (4.05)
mean change in VAS score after instillation of eye drop ([1]; 6.5 hours versus 6 hours post-operative): −3.1
mean change in VAS score after instillation of eye drop ([1]; 18.5 hours versus 18 hours post-operative): 2.8
mean change in VAS score after instillation of eye drop ([1]; 24.5 hours versus 24 hours post-operative): 1.3
Median Tlast [2, 4]: 2.00 h
Tlast (range) [2, 4]: 1.95 to 2.05 h
Median Tlast [2, 5]: 2.00 h
Tlast (range) [2, 5]: 1.77 to 2.10 h
Day 1 pre-dose plasma concentrations ([2]; LLOQ 0.05 ng/mL): below the limit of quantitation
Tmax ([2]; human, plasma, topical or ocular, 2.5 %, after either single (first dose) or repeated 4 times daily topical ocular administration, read-out: median plasma Tmax): ~30 min
Tmax ([2]; human, plasma, topical or ocular, 2.5 %, after the first dose (Day 1), unilateral topical ocular 2.5%, read-out: median Tmax, plasma): 27.5 min
AUC(0-t) ([2]; human, plasma, topical or ocular, 2.5 %, max, profile day 1, plasma, topical ocular 2.5% compound I, read-out: AUClast): 1.58 ng·h/mL
Cmax ([2]; human, plasma, topical or ocular, 2.5 %, max, profile day 1, plasma, topical ocular 2.5% compound I, read-out: Cmax): 1.05 ng/mL
Tmax ([2]; human, plasma, topical or ocular, 2.5 %, max, profile day 1, plasma, topical ocular 2.5% compound I, read-out: Tmax): 120 min
AUC(0-t) ([2]; human, plasma, topical or ocular, 2.5 %, max, profile day 4, plasma, topical ocular 2.5% compound I, read-out: AUClast): 14.5 ng·h/mL
Cmax ([2]; human, plasma, topical or ocular, 2.5 %, max, profile day 4, plasma, topical ocular 2.5% compound I, read-out: Cmax): 7.56 ng/mL
Tmax ([2]; human, plasma, topical or ocular, 2.5 %, max, profile day 4, plasma, topical ocular 2.5% compound I, read-out: Tmax): 125 min
Cmax ([2]; human, plasma, topical or ocular, 2.5 %, mean, profile day 1 (first dose), plasma, topical ocular 2.5% compound I, PK analysis set, read-out: Cmax): 0.454 ng/mL
AUC(0-t) ([2]; human, plasma, topical or ocular, 2.5 %, mean, profile day 1, plasma, topical ocular 2.5% compound I, read-out: AUClast): 0.638 ng·h/mL
Cmax ([2]; human, plasma, topical or ocular, 2.5 %, mean, profile day 4 (13th dose, QID), plasma, topical ocular 2.5% compound I, read-out: Cmax): 2.4 ng/mL
AUC(0-t) ([2]; human, plasma, topical or ocular, 2.5 %, mean, profile day 4, plasma, topical ocular 2.5% compound I, read-out: AUClast): 4.38 ng·h/mL
AUC(0-t) ([2]; human, plasma, topical or ocular, 2.5 %, median, profile day 1, plasma, topical ocular 2.5% compound I, read-out: AUClast): 0.569 ng·h/mL
Cmax ([2]; human, plasma, topical or ocular, 2.5 %, median, profile day 1, plasma, topical ocular 2.5% compound I, read-out: Cmax): 0.375 ng/mL
Tmax ([2]; human, plasma, topical or ocular, 2.5 %, median, profile day 1, plasma, topical ocular 2.5% compound I, read-out: Tmax): 27.5 min
AUC(0-t) ([2]; human, plasma, topical or ocular, 2.5 %, median, profile day 4, plasma, topical ocular 2.5% compound I, read-out: AUClast): 3.42 ng·h/mL
Cmax ([2]; human, plasma, topical or ocular, 2.5 %, median, profile day 4, plasma, topical ocular 2.5% compound I, read-out: Cmax): 2.07 ng/mL
Tmax ([2]; human, plasma, topical or ocular, 2.5 %, median, profile day 4, plasma, topical ocular 2.5% compound I, read-out: Tmax): 28 min
AUC(0-t) ([2]; human, plasma, topical or ocular, 2.5 %, min, profile day 1, plasma, topical ocular 2.5% compound I, read-out: AUClast): 0.261 ng·h/mL
Cmax ([2]; human, plasma, topical or ocular, 2.5 %, min, profile day 1, plasma, topical ocular 2.5% compound I, read-out: Cmax): 0.195 ng/mL
Tmax ([2]; human, plasma, topical or ocular, 2.5 %, min, profile day 1, plasma, topical ocular 2.5% compound I, read-out: Tmax): 10 min
AUC(0-t) ([2]; human, plasma, topical or ocular, 2.5 %, min, profile day 4, plasma, topical ocular 2.5% compound I, read-out: AUClast): 1.18 ng·h/mL
Cmax ([2]; human, plasma, topical or ocular, 2.5 %, min, profile day 4, plasma, topical ocular 2.5% compound I, read-out: Cmax): 0.639 ng/mL
Tmax ([2]; human, plasma, topical or ocular, 2.5 %, min, profile day 4, plasma, topical ocular 2.5% compound I, read-out: Tmax): 0 min
Cmax ([2]; human, plasma, topical, 2.5 %, 13th dose on Day 4, read-out: Arithmetic mean plasma Cmax): 2.4 ng/mL
AUC(0-t) ([2]; human, plasma, topical, 2.5 %, 13th dose on Day 4, read-out: mean plasma AUClast): 4.38 ng·h/mL
mean AUClast Day 4 versus Day 1 [2, 6]: 6.9 fold
mean Cmax Day 4 versus Day 1 [2, 6]: 5.3 fold
Cmax ([2]; human, plasma, topical, 2.5 %, across 4 days of repeated QID dosing, read-out: observed plasma Cmax, range): 0.195 to 7.56 ng/mL
AUC(0-t) ([2]; human, plasma, topical, 2.5 %, across 4 days of repeated QID dosing, read-out: plasma AUClast, range): 0.261 to 14.5 ng·h/mL
Tmax ([2]; human, plasma, topical, 2.5 %, after the 13th dose (Day 4), read-out: median Tmax, plasma): 28 min
Cmax ([2]; human, plasma, topical, 2.5 %, first dose on Day 1, read-out: Arithmetic mean plasma Cmax): 0.454 ng/mL
AUC(0-t) ([2]; human, plasma, topical, 2.5 %, first dose on Day 1, read-out: mean plasma AUClast): 0.638 ng·h/mL
concentration at 24 hr ([2]; human, plasma, topical, 2.5 %, prior to the 5th dose on Day 2 (24 hr post 1st dose), read-out: Trough mean plasma concentration): 1.25 ng/mL
concentration at 72 hr ([2]; human, plasma, topical, 2.5 %, prior to the 13th dose on Day 4 (72 hr post 1st dose), read-out: Trough mean plasma concentration): 1.99 ng/mL
solubility ([3]; isopropyl myristate, oil or lipid, solvent: Isopropyl Myrisate): 90 µg/mL (≈ 295 µM)
solubility ([3]; oil or lipid, solvent: Medium-Chain Triglycerides (Miglyol 812)): 100 µg/mL (≈ 328 µM)
solubility ([3]; oil or lipid, solvent: Mineral Oil): 30 µg/mL (≈ 98.3 µM)
solubility ([3]; oil or lipid, solvent: Oleyl Alcohol): 120 µg/mL (≈ 393 µM)
solubility ([3]; organic solvent or mixture, solvent: Diisopropyl Adipate): 160 µg/mL (≈ 524 µM)
solubility ([3]; organic solvent or mixture, solvent: Ethanol): 790 µg/mL (≈ 2590 µM)
solubility ([3]; organic solvent or mixture, solvent: Hexylene Glycol): 280 µg/mL (≈ 917 µM)
solubility ([3]; organic solvent or mixture, solvent: Isopropanol): 330 µg/mL (≈ 1080 µM)
solubility ([3]; organic solvent or mixture, solvent: Isosorbide): 340 µg/mL (≈ 1110 µM)
solubility ([3]; organic solvent or mixture, solvent: Polyethylene Glycol 200): 1620 µg/mL (≈ 5310 µM)
solubility ([3]; organic solvent or mixture, solvent: Polyethylene Glycol 300): 2040 µg/mL (≈ 6680 µM)
solubility ([3]; organic solvent or mixture, solvent: Polyethylene Glycol 400): 1660 µg/mL (≈ 5440 µM)
solubility ([3]; organic solvent or mixture, solvent: Propylene Carbonate): 400 µg/mL (≈ 1310 µM)
solubility ([3]; organic solvent or mixture, solvent: Propylene Glycol): 1680 µg/mL (≈ 5500 µM)
solubility ([3]; solvent: Water): 10 µg/mL (≈ 32.8 µM)

Reference: patent publication US20200390767A1, “Formulations of 4-(7-Hydroxy-2-isopropyl-4-oxo-4H-quinazolin-3-yl)-benzonitrile” (NOVARTIS AG, priority 2019, published 2020)
